Data: patent US20160262390A1, “FIELD APPLICATION OF SUGARS TO INCREASE CROP YIELD” (Minn-Dak Farmers Cooperative, priority 2015, published 2016)

Key:
sugarbeets = test: Pre-planting sugar application on sugarbeets, Hickson; assay type: in vivo, sugarbeet; conditions: for Recoverable Sugar Yield / Recoverable Sugar Yield Increase Compared to Check Average / Sugarbeet Yield: ND
Method: (§1) The field trials were conducted simultaneously in two different planting locations for each of the crops. One location was near the community of Foxhome in Wilkin County, Minnesota (hereafter referred to as “Foxhome”) while the second location was near the community of Hickson in Cass County, North Dakota (hereafter referred to as “Hickson”). The Foxhome and Hickson locations are on opposite sides of the Red River along the border of Minnesota and North Dakota and separated by a distance exceeding 40 miles. Generally, the Foxhome location has heavier clay loam soil conditions while Hickson has sandy loam soil conditions.
(§2) At each of the Foxhome and Hickson locations, a total of thirty two (32) treatments were conducted for each crop (sugarbeets, soybeans, corn, wheat). Each treatment was replicated four times arranged in a Randomized Complete Block (RCB) Design in the same field. Each replication consisted of a plot measuring twenty five (25) feet in length and eleven (11) feet in width. In selecting the particular seed types for evaluation, popular commercial varieties to the region were utilized. For the row crops (sugarbeets, soybeans, corn) each replication included a width of six (6) rows with twenty two (22) inch row spacing and having a row length of twenty five (25) feet. The wheat was planted in accordance with standard commercial practices. To reduce/eliminate any treatment impacts between adjacent plots for the crops, only the four (4) interior rows of each plot were treated and evaluated for row crops, while for wheat, only the interior 7.33 feet of each plot were treated and evaluated. With the exception of the treatment program applied to the individual plots, which will be discussed below, conventional commercial growing practices for each planting location were otherwise followed during the field trials. While the individual plots at the same location, Hickson or Foxhome, experienced essentially the same growing conditions throughout the season, there were various differences associated with localized precipitation, general growing conditions, soil classification and the like, which contributed to performance differences between the Hickson and Foxhome locations.
(§3) The treatment regimen at each location for each of the tested crops included two (2) untreated treatments (Treatments 31 and 32) in which no sugar was applied and constitute the control elements. […] Six (6) treatments (Treatments 13-18) included the liquid application of high fructose corn syrup (hereafter “HFCS”) at varying rates. Six treatments (Treatments 19-24) included the liquid application of dextrose (hereafter “LIQDEX”) at varying rates. Six (6) treatments (Treatments 25-30) included the application of powdered cellulose (hereafter “POWCEL”) at varying rates. For the sugar applied in a solid form, granulated or powdered, field application was conducted via conventional broadcast spreading. For the sugar applied in a liquid form, a liquid concentrate was mixed and diluted with water in a tank and a conventional sprayer was configured such that the liquid was sprayed so as to have the same sugar equivalent (measured in pounds/per acre) as the sugar in solid form. Regardless of whether the sugar was applied as a solid or liquid, the sugar was applied directly onto the soil before spring tillage, lightly worked into the ground and followed by planting of the crop seed in the treated ground. A summary of application rates for each plot treatments are contained in Table 7 below and were used consistently with each of the crops (sugarbeets, soybeans, corn, wheat).
To test the impact of pre-planting application rates and sugar source on sugarbeets, identical field trials using Crystal® brand ACH 260 sugarbeet seed were conducted at the Foxhome and Hickson locations. Planting of the sugarbeet seed and harvest of the sugarbeets were conducted on as close to the same dates as practical so as to have essentially the same length growing season. […]

soybeans [1] = test: Pre-planting sugar application on soybeans, Foxhome; assay type: in vivo, soybean; conditions: for Yield / Yield Increase Compared to Check: MN
Method: as §1, §2, §3
(§4) To test the impact of pre-planting application rates and sugar source on soybeans, identical field trials using Syngenta brand soybean seed were conducted at the Foxhome and Hickson locations. Planting of the soybean seed and harvest of the soybeans were conducted on approximately the same dates so as to have essentially the same growing season. […]

soybeans [2] = test: Pre-planting sugar application on soybeans, Hickson; assay type: in vivo, soybean; conditions: for Yield / Yield Increase Compared to Check Average: ND
Method: as §1, §2, §3, §4

wheat = test: Pre-planting sugar application on wheat, Hickson; assay type: in vivo; conditions: ND
Method: as §1, §2, §3
as §4, with “wheat,” for “soybeans,”, “Westbred Mayville wheat” for “Syngenta brand soybean”, “wheat” for “soybean”, “wheat” for “soybeans”, “on” for “on approximately”

[3] = test system: microflora that are present in the soil; test: Solvita Soil CO2-Burst test of pre-emergent soil samples, soybean trial in Hickson
Method: In an attempt to quantify this boost, soil samples were taken during some of the previously discussed trials. These samples were tested using a standard Solvita Soil CO2-Burst Test Kit to generate measurements associated with CO2 respiration which can be used as an indicator of active soil carbon, soil microbial biomass and the potential for nutrient release beneficial to crop production. Generally, the higher the measured levels of CO2, the more advantageous the soil is for crop production.
The results of the CO2-Burst Testing are summarized in Table 17 below (using the replication designations from Table 7): […]

OC[C@H]1O[C@@](CO)(O[C@H]2O[C@H](CO)[C@@H](O)[C@H](O)[C@H]2O)[C@@H](O)[C@@H]1O [LIQSUC, sucrose]
Recoverable Sugar Yield (sugarbeets; pre-planting 25 pounds/Acre): 9363 Pounds/Acre | Recoverable Sugar Yield Increase Compared to Check Average (sugarbeets; pre-planting 25 pounds/Acre): −4.55% | Sugarbeet Yield (sugarbeets; pre-planting 25 pounds/Acre): 28.83 Tons/Acre | Recoverable Sugar Yield (sugarbeets; pre-planting 50 pounds/Acre): 10217 Pounds/Acre | Recoverable Sugar Yield Increase Compared to Check Average (sugarbeets; pre-planting 50 pounds/Acre): 4.16% | Sugarbeet Yield (sugarbeets; pre-planting 50 pounds/Acre): 32.05 Tons/Acre | Recoverable Sugar Yield (sugarbeets; pre-planting 100 pounds/Acre): 9216 Pounds/Acre | Recoverable Sugar Yield Increase Compared to Check Average (sugarbeets; pre-planting 100 pounds/Acre): −6.05% | Sugarbeet Yield (sugarbeets; pre-planting 100 pounds/Acre): 28.83 Tons/Acre | Recoverable Sugar Yield (sugarbeets; pre-planting 150 pounds/Acre): 9089 Pounds/Acre | Recoverable Sugar Yield Increase Compared to Check Average (sugarbeets; pre-planting 150 pounds/Acre): −7.34% | Sugarbeet Yield (sugarbeets; pre-planting 150 pounds/Acre): 31.95 Tons/Acre | Recoverable Sugar Yield (sugarbeets; pre-planting 200 pounds/Acre): 9998 Pounds/Acre | Recoverable Sugar Yield Increase Compared to Check Average (sugarbeets; pre-planting 200 pounds/Acre): 1.93% | Sugarbeet Yield (sugarbeets; pre-planting 200 pounds/Acre): 32.35 Tons/Acre | Recoverable Sugar Yield (sugarbeets; pre-planting 250 pounds/Acre): 9627 Pounds/Acre | Recoverable Sugar Yield Increase Compared to Check Average (sugarbeets; pre-planting 250 pounds/Acre): −1.86% | Sugarbeet Yield (sugarbeets; pre-planting 250 pounds/Acre): 32.29 Tons/Acre | number of treatments showing negative yield benefits compared to check average (sugarbeets; six rates per sugar): four of the six | Yield (soybeans [1]; pre-planting 25 pounds/Acre): 67.82 Bushels/Acre | Yield Increase Compared to Check (soybeans [1]; pre-planting 25 pounds/Acre): −1.05% | Yield (soybeans [1]; pre-planting 50 pounds/Acre): 72.08 Bushels/Acre | Yield Increase Compared to Check (soybeans [1]; pre-planting 50 pounds/Acre): 5.16% | Yield (soybeans [1]; pre-planting 100 pounds/Acre): 71.28 Bushels/Acre | Yield Increase Compared to Check (soybeans [1]; pre-planting 100 pounds/Acre): 4.00% | Yield (soybeans [1]; pre-planting 150 pounds/Acre): 70.57 Bushels/Acre | Yield Increase Compared to Check (soybeans [1]; pre-planting 150 pounds/Acre): 2.96% | Yield (soybeans [1]; pre-planting 200 pounds/Acre): 68.33 Bushels/Acre | Yield Increase Compared to Check (soybeans [1]; pre-planting 200 pounds/Acre): −0.31% | Yield (soybeans [1]; pre-planting 250 pounds/Acre): 72.14 Bushels/Acre | Yield Increase Compared to Check (soybeans [1]; pre-planting 250 pounds/Acre): 5.25% | number of treatments showing yield improvement compared to check treatment 31 (soybeans [1]; six rates (25-250 pounds/Acre) per sugar, thirty in all): four of the six | Yield (soybeans [2]; pre-planting 25 pounds/Acre): 61.90 Bushels/Acre | Yield Increase Compared to Check Average (soybeans [2]; pre-planting 25 pounds/Acre): 0.24% | Yield (soybeans [2]; pre-planting 50 pounds/Acre): 61.87 Bushels/Acre | Yield Increase Compared to Check Average (soybeans [2]; pre-planting 50 pounds/Acre): 0.19% | Yield (soybeans [2]; pre-planting 100 pounds/Acre): 59.52 Bushels/Acre | Yield Increase Compared to Check Average (soybeans [2]; pre-planting 100 pounds/Acre): −3.61% | Yield (soybeans [2]; pre-planting 150 pounds/Acre): 59.71 Bushels/Acre | Yield Increase Compared to Check Average (soybeans [2]; pre-planting 150 pounds/Acre): −3.30% | Yield (soybeans [2]; pre-planting 200 pounds/Acre): 61.36 Bushels/Acre | Yield Increase Compared to Check Average (soybeans [2]; pre-planting 200 pounds/Acre): −0.63% | Yield (soybeans [2]; pre-planting 250 pounds/Acre): 61.03 Bushels/Acre | Yield Increase Compared to Check Average (soybeans [2]; pre-planting 250 pounds/Acre): −1.17% | number of treatments showing negative yield benefits compared to check average (soybeans [2]; six rates per sugar): four of the six | Yield (wheat; pre-planting 25 pounds/Acre): 47.09 Bushels/Acre | Yield Increase Compared to Check (wheat; pre-planting 25 pounds/Acre): −4.17% | Yield (wheat; pre-planting 50 pounds/Acre): 53.46 Bushels/Acre | Yield Increase Compared to Check (wheat; pre-planting 50 pounds/Acre): 8.79% | Yield (wheat; pre-planting 100 pounds/Acre): 50.09 Bushels/Acre | Yield Increase Compared to Check (wheat; pre-planting 100 pounds/Acre): 1.93% | Yield (wheat; pre-planting 150 pounds/Acre): 46.03 Bushels/Acre | Yield Increase Compared to Check (wheat; pre-planting 150 pounds/Acre): −6.33% | Yield (wheat; pre-planting 200 pounds/Acre): 48.31 Bushels/Acre | Yield Increase Compared to Check (wheat; pre-planting 200 pounds/Acre): −1.69% | Yield (wheat; pre-planting 250 pounds/Acre): 50.24 Bushels/Acre | Yield Increase Compared to Check (wheat; pre-planting 250 pounds/Acre): 2.24% | CO2 Burst ppm ([3]; sugar amount 50 pounds/acre): 49 ppm | CO2 Increase as Compared to Check Average ([3]; sugar amount 50 pounds/acre): 7.69% | CO2 Burst ppm ([3]; sugar amount 150 pounds/acre): 45 ppm | CO2 Increase as Compared to Check Average ([3]; sugar amount 150 pounds/acre): −1.10% | CO2 Burst ppm ([3]; sugar amount 250 pounds/acre): 55 ppm | CO2 Increase as Compared to Check Average ([3]; sugar amount 250 pounds/acre): 20.88%
